According to ChEMBL document CHEMBL5291721, “A preclinical secondary pharmacology resource illuminates target-adverse drug reaction associations of marketed drugs” (Nat Commun, 2023):

Key:
Thromboxane A2 receptor [1] = target: T1, Thromboxane A2 receptor (Homo sapiens, UniProt P21731); assay type: functional, cell-based
T1 sequence (P21731 whole entry): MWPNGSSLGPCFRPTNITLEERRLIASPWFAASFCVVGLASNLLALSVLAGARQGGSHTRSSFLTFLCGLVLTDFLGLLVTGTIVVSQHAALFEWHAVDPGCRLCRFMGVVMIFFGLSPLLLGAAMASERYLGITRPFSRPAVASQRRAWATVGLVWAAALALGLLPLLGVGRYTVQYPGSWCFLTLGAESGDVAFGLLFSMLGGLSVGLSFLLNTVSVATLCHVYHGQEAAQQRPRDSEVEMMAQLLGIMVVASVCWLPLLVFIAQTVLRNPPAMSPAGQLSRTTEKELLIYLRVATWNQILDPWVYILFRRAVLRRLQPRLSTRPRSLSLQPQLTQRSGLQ

[2] = target: Sodium-dependent noradrenaline transporter (Homo sapiens, UniProt P23975)
Sequence of Sodium-dependent noradrenaline transporter (P23975 whole entry): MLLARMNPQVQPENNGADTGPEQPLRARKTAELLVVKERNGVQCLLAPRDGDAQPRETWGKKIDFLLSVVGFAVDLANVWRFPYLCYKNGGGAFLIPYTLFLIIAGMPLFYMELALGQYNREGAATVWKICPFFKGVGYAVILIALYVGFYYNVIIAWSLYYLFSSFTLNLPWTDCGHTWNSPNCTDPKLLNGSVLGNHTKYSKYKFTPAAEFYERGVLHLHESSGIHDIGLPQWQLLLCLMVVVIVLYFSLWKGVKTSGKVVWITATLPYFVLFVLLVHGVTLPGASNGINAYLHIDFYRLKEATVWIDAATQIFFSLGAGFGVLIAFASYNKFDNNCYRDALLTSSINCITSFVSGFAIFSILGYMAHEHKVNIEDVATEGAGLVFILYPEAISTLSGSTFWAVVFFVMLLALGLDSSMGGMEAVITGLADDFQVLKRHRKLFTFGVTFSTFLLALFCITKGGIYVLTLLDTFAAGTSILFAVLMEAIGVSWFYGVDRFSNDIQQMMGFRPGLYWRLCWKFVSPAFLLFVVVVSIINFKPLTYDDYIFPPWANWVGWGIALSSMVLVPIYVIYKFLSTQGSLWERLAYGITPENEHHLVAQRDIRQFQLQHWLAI

Prothrombin = Prothrombin (Homo sapiens, UniProt P00734); assay type: functional
Acetylcholinesterase = Acetylcholinesterase (Homo sapiens, UniProt P22303); assay type: functional
Sequence of Acetylcholinesterase (P22303 whole entry): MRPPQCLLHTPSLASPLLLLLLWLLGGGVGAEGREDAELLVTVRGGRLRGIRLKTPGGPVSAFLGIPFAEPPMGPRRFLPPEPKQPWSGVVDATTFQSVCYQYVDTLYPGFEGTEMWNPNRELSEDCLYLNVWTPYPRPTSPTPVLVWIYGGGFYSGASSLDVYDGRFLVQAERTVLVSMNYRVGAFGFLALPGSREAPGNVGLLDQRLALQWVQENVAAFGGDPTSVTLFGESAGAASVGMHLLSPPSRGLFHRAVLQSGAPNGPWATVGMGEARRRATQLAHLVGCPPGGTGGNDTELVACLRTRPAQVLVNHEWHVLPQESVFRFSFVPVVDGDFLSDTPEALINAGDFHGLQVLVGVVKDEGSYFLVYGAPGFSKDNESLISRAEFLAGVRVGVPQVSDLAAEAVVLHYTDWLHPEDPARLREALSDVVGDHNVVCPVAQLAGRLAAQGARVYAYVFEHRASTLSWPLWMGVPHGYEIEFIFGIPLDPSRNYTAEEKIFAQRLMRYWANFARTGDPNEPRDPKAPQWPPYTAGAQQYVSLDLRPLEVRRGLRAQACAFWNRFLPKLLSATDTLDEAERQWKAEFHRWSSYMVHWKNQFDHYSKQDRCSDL

[3] = target: T2, Amine oxidase [flavin-containing] A (Homo sapiens, UniProt P21397); assay type: functional
T2 sequence (P21397 whole entry): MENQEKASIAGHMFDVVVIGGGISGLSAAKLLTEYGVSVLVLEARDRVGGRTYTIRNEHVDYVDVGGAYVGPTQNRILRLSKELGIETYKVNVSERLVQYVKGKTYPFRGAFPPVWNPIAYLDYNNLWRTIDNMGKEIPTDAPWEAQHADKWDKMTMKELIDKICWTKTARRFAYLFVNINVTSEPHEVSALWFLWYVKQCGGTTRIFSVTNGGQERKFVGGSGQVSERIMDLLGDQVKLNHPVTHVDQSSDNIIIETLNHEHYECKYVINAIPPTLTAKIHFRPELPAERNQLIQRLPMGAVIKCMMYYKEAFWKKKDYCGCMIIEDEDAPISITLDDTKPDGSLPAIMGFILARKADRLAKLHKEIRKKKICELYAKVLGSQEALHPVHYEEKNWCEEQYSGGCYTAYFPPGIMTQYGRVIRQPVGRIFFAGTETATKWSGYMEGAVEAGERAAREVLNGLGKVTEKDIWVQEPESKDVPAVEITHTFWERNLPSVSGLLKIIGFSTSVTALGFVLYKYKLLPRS

[4] = target: cGMP-inhibited 3',5'-cyclic phosphodiesterase 3A (Homo sapiens, UniProt Q14432); assay type: functional
Sequence of cGMP-inhibited 3',5'-cyclic phosphodiesterase 3A (Q14432 whole entry): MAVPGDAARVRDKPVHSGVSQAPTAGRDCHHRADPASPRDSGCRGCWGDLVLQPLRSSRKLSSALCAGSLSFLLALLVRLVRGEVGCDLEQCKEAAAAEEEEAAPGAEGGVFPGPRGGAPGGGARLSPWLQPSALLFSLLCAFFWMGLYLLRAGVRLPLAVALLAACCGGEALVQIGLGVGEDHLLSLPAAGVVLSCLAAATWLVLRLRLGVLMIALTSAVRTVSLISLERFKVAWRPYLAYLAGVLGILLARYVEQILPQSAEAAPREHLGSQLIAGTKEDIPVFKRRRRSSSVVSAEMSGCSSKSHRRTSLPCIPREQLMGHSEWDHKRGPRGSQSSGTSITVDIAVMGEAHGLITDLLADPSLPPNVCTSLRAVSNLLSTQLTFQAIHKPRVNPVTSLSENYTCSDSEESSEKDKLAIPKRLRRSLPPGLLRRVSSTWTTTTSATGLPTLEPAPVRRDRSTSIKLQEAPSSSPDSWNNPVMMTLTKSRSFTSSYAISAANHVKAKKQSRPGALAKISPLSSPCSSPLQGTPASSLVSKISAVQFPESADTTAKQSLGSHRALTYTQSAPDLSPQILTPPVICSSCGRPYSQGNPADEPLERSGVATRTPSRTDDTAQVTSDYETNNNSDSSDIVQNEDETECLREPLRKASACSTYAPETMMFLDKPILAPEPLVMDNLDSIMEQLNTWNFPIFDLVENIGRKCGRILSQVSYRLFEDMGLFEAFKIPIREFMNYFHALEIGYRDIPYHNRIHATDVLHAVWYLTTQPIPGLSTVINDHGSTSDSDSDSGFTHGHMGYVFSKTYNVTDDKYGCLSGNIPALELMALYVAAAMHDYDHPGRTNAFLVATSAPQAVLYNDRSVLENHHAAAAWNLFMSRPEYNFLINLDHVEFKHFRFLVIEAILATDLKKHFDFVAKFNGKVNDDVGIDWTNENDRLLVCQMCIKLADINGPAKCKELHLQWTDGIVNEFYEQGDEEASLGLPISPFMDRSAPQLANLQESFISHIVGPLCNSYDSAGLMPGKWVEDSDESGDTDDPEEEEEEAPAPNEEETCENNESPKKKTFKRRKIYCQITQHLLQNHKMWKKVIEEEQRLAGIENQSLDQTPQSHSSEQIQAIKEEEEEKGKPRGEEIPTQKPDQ

[5] = target: Beta-2 adrenergic receptor (Homo sapiens, UniProt P07550)
Sequence of Beta-2 adrenergic receptor (P07550 whole entry): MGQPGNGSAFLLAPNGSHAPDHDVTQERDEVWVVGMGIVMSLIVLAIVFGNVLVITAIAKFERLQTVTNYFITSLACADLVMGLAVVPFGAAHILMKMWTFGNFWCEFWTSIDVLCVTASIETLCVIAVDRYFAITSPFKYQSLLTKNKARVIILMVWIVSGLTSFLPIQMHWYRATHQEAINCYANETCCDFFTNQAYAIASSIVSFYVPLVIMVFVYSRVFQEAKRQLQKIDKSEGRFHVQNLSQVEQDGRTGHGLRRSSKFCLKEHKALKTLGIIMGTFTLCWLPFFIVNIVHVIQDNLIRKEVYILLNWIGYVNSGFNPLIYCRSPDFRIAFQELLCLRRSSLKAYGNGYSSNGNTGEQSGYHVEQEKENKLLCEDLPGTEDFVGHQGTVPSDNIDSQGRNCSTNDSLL

[6] = target: Beta-1 adrenergic receptor (Homo sapiens, UniProt P08588); assay type: functional
Sequence of Beta-1 adrenergic receptor (P08588 whole entry): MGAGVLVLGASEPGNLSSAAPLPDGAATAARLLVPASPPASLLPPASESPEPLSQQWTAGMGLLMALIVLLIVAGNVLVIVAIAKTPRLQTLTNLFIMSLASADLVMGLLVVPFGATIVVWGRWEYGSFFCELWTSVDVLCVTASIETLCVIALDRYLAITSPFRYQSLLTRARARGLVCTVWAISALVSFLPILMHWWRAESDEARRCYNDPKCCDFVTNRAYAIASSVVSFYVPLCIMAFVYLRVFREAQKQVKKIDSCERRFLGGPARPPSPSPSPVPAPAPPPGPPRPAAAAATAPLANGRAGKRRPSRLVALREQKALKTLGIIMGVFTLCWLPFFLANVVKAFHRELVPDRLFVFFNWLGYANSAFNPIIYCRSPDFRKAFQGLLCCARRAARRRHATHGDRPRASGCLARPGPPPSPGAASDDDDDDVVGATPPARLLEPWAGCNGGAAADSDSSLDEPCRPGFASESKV

[7] = target: T3, Neuropeptide Y receptor type 1 (Homo sapiens, UniProt P25929)
T3 sequence (P25929 whole entry): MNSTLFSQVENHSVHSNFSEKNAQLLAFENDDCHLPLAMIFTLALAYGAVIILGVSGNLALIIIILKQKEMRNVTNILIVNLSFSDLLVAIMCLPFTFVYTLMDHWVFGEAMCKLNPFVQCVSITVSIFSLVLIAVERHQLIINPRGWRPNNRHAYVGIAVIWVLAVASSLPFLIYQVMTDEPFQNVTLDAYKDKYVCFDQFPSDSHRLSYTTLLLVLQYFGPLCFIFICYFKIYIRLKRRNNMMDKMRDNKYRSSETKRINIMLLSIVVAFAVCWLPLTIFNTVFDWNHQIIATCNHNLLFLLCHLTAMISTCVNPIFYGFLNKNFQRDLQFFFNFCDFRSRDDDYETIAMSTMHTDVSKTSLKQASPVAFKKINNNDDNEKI

Thromboxane A2 receptor [8] = target: T1, Thromboxane A2 receptor
Further: assay procedure not described here.

SMILES | AC50 (Thromboxane A2 receptor [1]) [µM] | AC50 [2] [µM] | AC50 (Prothrombin) [µM] | AC50 (Acetylcholinesterase) [µM] | AC50 [3] [µM] | AC50 [4] [µM] | AC50 [5] [µM] | AC50 [6] [µM] | AC50 [7] [µM] | AC50 (Thromboxane A2 receptor [8]) [µM]
O=C1c2c(O)c(=O)ccn2N([C@@H]2c3ccccc3SCc3c2ccc(F)c3F)[C@@H]2COCCN12 [BALOXAVIR] | > 30 | > 30 | > 30 | > 30 | > 30 | > 30 |  |  |  | 
C(=N\NC1=NCCN1)/c1c2ccccc2c(/C=N/NC2=NCCN2)c2ccccc12 [BISANTRENE] | > 30 | 7.13 | > 30 | 3.88 | > 30 | > 30 |  |  |  | 
CCO/N=C(\C(=O)N[C@@H]1C(=O)N2C(C(=O)[O-])=C(Sc3nc(-c4cc[n+](C)cc4)cs3)CS[C@H]12)c1nsc(N)n1 [CEFTAROLINE] | > 30 | > 30 | > 30 | > 30 | > 30 | > 30 |  |  |  | 
Cc1cc(O)cc(C)c1Cl [CHLOROXYLENOL] | 28.3 | > 30 | > 30 | > 30 | > 30 | > 30 |  |  |  | 
C[N+](C)(C)CCCCCCCCCC[N+](C)(C)C [DECAMETHONIUM] | > 30 | > 30 | > 30 | 9.15 | > 30 | > 30 |  |  |  | 
O=C1c2ccccc2C(=O)C1C(=O)C(c1ccccc1)c1ccccc1 [DIPHENADIONE] | 1.84 | > 30 | > 30 | > 30 | > 30 | > 30 |  |  |  | 
CCC(=O)O[C@H]1[C@H](O[C@@H]2[C@@H](C)[C@H](O[C@H]3C[C@@](C)(OC)[C@@H](O)[C@H](C)O3)[C@@H](C)C(=O)O[C@H](CC)[C@@](C)(O)[C@H](O)[C@@H](C)C(=O)[C@H](C)C[C@@]2(C)O)O[C@H](C)C[C@@H]1N(C)C [ERYTHROMYCIN PROPIONATE] | > 3 | 29.9 | > 30 | > 30 | > 30 | > 30 |  |  |  | 
CCOC(=O)c1ccc(O)cc1 [ETHYLPARABEN] | > 30 | > 30 | > 30 | > 30 | > 30 | > 30 |  |  |  | 
O=C1[C@H](CC[C@H](O)c2ccc(F)cc2)[C@@H](c2ccc(O)cc2)N1c1ccc(F)cc1 [EZETIMIBE] | 7.68 | 24 | > 30 | > 30 | > 30 | > 30 |  |  |  | 
O=C(COc1ccc(Cl)cc1)N1CCN(Cc2ccc3c(c2)OCO3)CC1 [FIPEXIDE] | 11.3 | 20.4 | > 30 | > 30 | > 30 | > 30 |  |  |  | 
Cc1c(-c2ccccc2)oc2c(C(=O)OCCN3CCCCC3)cccc2c1=O [FLAVOXATE] | > 30 | 11.3 | > 30 | 17.6 | > 30 | > 30 |  |  |  | 
CCC(=O)c1c(O)cc(O)cc1O [FLOPROPIONE] | > 30 | > 30 | > 30 | > 30 | > 30 | > 30 |  |  |  | 
CC1(C)O[C@@H]2C[C@H]3[C@@H]4C[C@H](F)C5=CC(=O)CC[C@]5(C)[C@H]4[C@@H](O)C[C@]3(C)[C@]2(C(=O)CO)O1 [FLURANDRENOLIDE] | > 30 | > 30 | > 30 | > 30 | > 30 | > 30 |  |  |  | 
C#C[C@]1(O)CC[C@H]2[C@@H]3CCC4=CC(=O)CC[C@@H]4[C@H]3CC[C@@]21CC [LEVONORGESTREL] | > 30 | > 30 | > 30 | > 30 | > 30 | > 30 |  |  |  | 
OC[C@@H](O)[C@@H](O)[C@H](O)[C@H](O)CO [MANNITOL] | > 30 | > 30 | > 30 | > 30 | > 30 | > 30 |  |  |  | 
CN1CCCC(CN2c3ccccc3Sc3ccccc32)C1 (configuration not stated) [MEPAZINE] | > 10 | 2.38 | > 30 | > 30 | > 30 | > 30 |  |  |  | 
Sc1ncnc2nc[nH]c12 [MERCAPTOPURINE ANHYDROUS] | > 30 | > 30 | > 30 | > 30 | > 30 | > 30 |  |  |  | 
C[N+]1(C)[C@@H]2C[C@@H](OC(=O)[C@H](CO)c3ccccc3)C[C@H]1[C@@H]1O[C@@H]12 [METHSCOPOLAMINE] | > 30 | > 30 | > 30 | > 30 | > 30 | > 30 |  |  |  | 
CC(=O)Oc1c(C)cc(OCC(O)CNC(C)C)c(C)c1C (configuration not stated) [METIPRANOLOL] | > 30 | > 30 | > 30 | > 30 | > 30 | > 30 |  |  |  | 
O=C1CC[C@@]2(O)[C@H]3Cc4ccc(O)c5c4[C@@]2(CCN3CC2CC2)[C@H]1O5 [NALTREXONE] | > 30 | > 30 | > 30 | > 30 | > 30 | > 30 |  |  |  | 
CC(N/C(=N\C#N)Nc1ccncc1)C(C)(C)C (configuration not stated) [PINACIDIL ANHYDROUS] | > 30 | > 30 | > 30 | > 30 | > 30 | > 30 |  |  |  | 
CC(O)CO (configuration not stated) [PROPYLENE GLYCOL] | > 30 | > 30 | > 30 | > 30 | > 30 | > 30 |  |  |  | 
CN(C)C(=O)Oc1ccc[n+](C)c1 [PYRIDOSTIGMINE] | > 30 | > 30 | > 30 |  | > 30 | > 30 |  |  |  | 
Cc1cc2c(cc1CC(=O)c1sccc1S(=O)(=O)Nc1onc(C)c1Cl)OCO2 [SITAXENTAN] | > 10 | > 30 | > 30 | > 30 | > 30 | > 30 |  |  |  | 
CC(C)OC(=O)[C@H](C)N[P@](=O)(OC[C@H]1O[C@@H](n2ccc(=O)[nH]c2=O)[C@](C)(F)[C@@H]1O)Oc1ccccc1 [SOFOSBUVIR] | > 30 | > 30 | > 30 | > 30 | > 30 | > 30 |  |  |  | 
CS(=O)(=O)c1ccc([C@@H](O)[C@@H](CO)NC(=O)C(Cl)Cl)cc1 [THIAMPHENICOL] | > 30 | > 30 | > 30 | > 30 | > 30 | > 30 | > 30 | > 30 | > 30 | > 30
Cc1ccc(O)c2ncccc12 [TILIQUINOL] | > 30 | 6.22 | > 30 | > 30 | > 30 | > 30 |  |  |  | 
CC(=O)OC[C@H]1O[C@@H](n2ccc(=O)[nH]c2=O)[C@H](OC(C)=O)[C@@H]1OC(C)=O [URIDINE TRIACETATE] | > 30 | > 30 | > 30 | > 30 | > 30 | > 30 |  |  |  | 
CCOC(=O)N[C@@H]1CC[C@@H]2[C@@H](C1)C[C@H]1C(=O)O[C@H](C)[C@H]1[C@H]2/C=C/c1ccc(-c2cccc(F)c2)cn1 [VORAPAXAR] | > 10 | 4.56 | > 30 | > 30 | > 30 | > 30 |  |  |  | 
